{
  "source": "the supplement of paper PMC10307832",
  "experiment_in_all_cases": "relative viability (nuclei count vs DMSO), 5 days (fraction); higher = more cells survive",
  "key": {"ABC-1": {"test_system": "ABC-1", "procedure,_shortened": "(§1)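 One day after seeding in 1536-well plates, lung cancer cell lines were dosed by pin tool. Dosing was either single-drug or a fixed anchor-drug dose plus five library-drug doses (not always all listed) in √10 steps. After 5 days, nuclei were stained in one fix-and-stain step and counted on 4× images, and relative viability is the nuclei count of treated wells over that of vehicle wells, given as the median of duplicate plates.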"}, "LC-2-ad": {"test_system": "LC-2-ad", "procedure,_shortened": "as §1"}, "NCI-H1650": {"test_system": "NCI-H1650", "procedure,_shortened": "as §1"}, "NCI-H661": {"test_system": "NCI-H661", "procedure,_shortened": "as §1"}, "HCC-15": {"test_system": "HCC-15", "procedure,_shortened": "as §1"}, "NCI-H1944": {"test_system": "NCI-H1944", "procedure,_shortened": "as §1"}, "H3255": {"test_system": "H3255", "procedure,_shortened": "as §1"}, "PC-3 [JPC-3]": {"test_system": "PC-3 [JPC-3]", "procedure,_shortened": "as §1"}, "NCI-H596": {"test_system": "NCI-H596", "procedure,_shortened": "as §1"}, "NCI-H441": {"test_system": "NCI-H441", "procedure,_shortened": "as §1"}, "BEN": {"test_system": "BEN", "procedure,_shortened": "as §1"}, "LCLC-97TM1": {"test_system": "LCLC-97TM1", "procedure,_shortened": "as §1"}},
  "data": [
    {"smiles": "Clc1ccc(Nc2nnc(Cc3ccncc3)c3ccccc23)cc1", "note": "[Vatalanib] + Cc1cc(Nc2cc(N3CCN(C)CC3)nc(Sc3ccc(NC(=O)C4CC4)cc3)n2)n[nH]1 [Tozasertib] (partner 0.1 µM)", "values": [
      {"measurement": "relative viability", "setting": "ABC-1; first compound 1.265 µM", "value": 0.177},
      {"measurement": "relative viability", "setting": "ABC-1; first compound 4 µM", "value": 0.207},
      {"measurement": "relative viability", "setting": "LC-2-ad; first compound 0.04 µM", "value": 0.53},
      {"measurement": "relative viability", "setting": "LC-2-ad; first compound 0.1265 µM", "value": 0.385},
      {"measurement": "relative viability", "setting": "LC-2-ad; first compound 1.265 µM", "value": 0.469},
      {"measurement": "relative viability", "setting": "LC-2-ad; first compound 4 µM", "value": 0.425},
      {"measurement": "relative viability", "setting": "NCI-H1650; first compound 0.04 µM", "value": 0.398},
      {"measurement": "relative viability", "setting": "NCI-H1650; first compound 0.1265 µM", "value": 0.246},
      {"measurement": "relative viability", "setting": "NCI-H1650; first compound 0.4 µM", "value": 0.438},
      {"measurement": "relative viability", "setting": "NCI-H1650; first compound 1.265 µM", "value": 0.37},
      {"measurement": "relative viability", "setting": "NCI-H1650; first compound 4 µM", "value": 0.425},
      {"measurement": "relative viability", "setting": "NCI-H661; first compound 0.04 µM", "value": 0.357},
      {"measurement": "relative viability", "setting": "NCI-H661; first compound 0.1265 µM", "value": 0.363},
      {"measurement": "relative viability", "setting": "NCI-H661; first compound 0.4 µM", "value": 0.331},
      {"measurement": "relative viability", "setting": "NCI-H661; first compound 1.265 µM", "value": 0.357},
      {"measurement": "relative viability", "setting": "NCI-H661; first compound 4 µM", "value": 0.366},
      {"measurement": "relative viability", "setting": "HCC-15; first compound 0.04 µM", "value": 0.419},
      {"measurement": "relative viability", "setting": "HCC-15; first compound 0.1265 µM", "value": 0.465},
      {"measurement": "relative viability", "setting": "HCC-15; first compound 0.4 µM", "value": 0.478},
      {"measurement": "relative viability", "setting": "HCC-15; first compound 1.265 µM", "value": 0.446},
      {"measurement": "relative viability", "setting": "HCC-15; first compound 4 µM", "value": 0.426},
      {"measurement": "relative viability", "setting": "NCI-H1944; first compound 0.04 µM", "value": 0.267},
      {"measurement": "relative viability", "setting": "NCI-H1944; first compound 0.1265 µM", "value": 0.247},
      {"measurement": "relative viability", "setting": "NCI-H1944; first compound 0.4 µM", "value": 0.262},
      {"measurement": "relative viability", "setting": "NCI-H1944; first compound 1.265 µM", "value": 0.266},
      {"measurement": "relative viability", "setting": "NCI-H1944; first compound 4 µM", "value": 0.235},
      {"measurement": "relative viability", "setting": "H3255; first compound 0.04 µM", "value": 0.626},
      {"measurement": "relative viability", "setting": "H3255; first compound 0.1265 µM", "value": 0.619},
      {"measurement": "relative viability", "setting": "H3255; first compound 0.4 µM", "value": 0.637},
      {"measurement": "relative viability", "setting": "H3255; first compound 1.265 µM", "value": 0.75},
      {"measurement": "relative viability", "setting": "H3255; first compound 4 µM", "value": 0.63},
      {"measurement": "relative viability", "setting": "PC-3 [JPC-3]; first compound 0.04 µM", "value": 0.876},
      {"measurement": "relative viability", "setting": "PC-3 [JPC-3]; first compound 0.1265 µM", "value": 0.864},
      {"measurement": "relative viability", "setting": "PC-3 [JPC-3]; first compound 0.4 µM", "value": 0.873},
      {"measurement": "relative viability", "setting": "PC-3 [JPC-3]; first compound 1.265 µM", "value": 0.835},
      {"measurement": "relative viability", "setting": "PC-3 [JPC-3]; first compound 4 µM", "value": 0.876},
      {"measurement": "relative viability", "setting": "NCI-H596; first compound 0.04 µM", "value": 0.783},
      {"measurement": "relative viability", "setting": "NCI-H596; first compound 0.1265 µM", "value": 0.821},
      {"measurement": "relative viability", "setting": "NCI-H596; first compound 0.4 µM", "value": 0.831},
      {"measurement": "relative viability", "setting": "NCI-H596; first compound 1.265 µM", "value": 0.747},
      {"measurement": "relative viability", "setting": "NCI-H596; first compound 4 µM", "value": 0.952},
      {"measurement": "relative viability", "setting": "NCI-H441; first compound 0.04 µM", "value": 0.847},
      {"measurement": "relative viability", "setting": "NCI-H441; first compound 0.1265 µM", "value": 0.746},
      {"measurement": "relative viability", "setting": "NCI-H441; first compound 0.4 µM", "value": 0.643},
      {"measurement": "relative viability", "setting": "NCI-H441; first compound 1.265 µM", "value": 0.659},
      {"measurement": "relative viability", "setting": "NCI-H441; first compound 4 µM", "value": 0.598},
      {"measurement": "relative viability", "setting": "BEN; first compound 0.04 µM", "value": 0.464},
      {"measurement": "relative viability", "setting": "BEN; first compound 0.1265 µM", "value": 0.535},
      {"measurement": "relative viability", "setting": "BEN; first compound 0.4 µM", "value": 0.557},
      {"measurement": "relative viability", "setting": "BEN; first compound 1.265 µM", "value": 0.439},
      {"measurement": "relative viability", "setting": "BEN; first compound 4 µM", "value": 0.412},
      {"measurement": "relative viability", "setting": "LCLC-97TM1; first compound 0.04 µM", "value": 0.301},
      {"measurement": "relative viability", "setting": "LCLC-97TM1; first compound 0.1265 µM", "value": 0.196},
      {"measurement": "relative viability", "setting": "LCLC-97TM1; first compound 0.4 µM", "value": 0.237},
      {"measurement": "relative viability", "setting": "LCLC-97TM1; first compound 1.265 µM", "value": 0.21},
      {"measurement": "relative viability", "setting": "LCLC-97TM1; first compound 4 µM", "value": 0.263}
    ]}
  ]
}
